Assay results from article PMC5672931 (British Journal of Cancer, 2017).
Marks after values point to notes of the source that are not given here.

What was measured:
[1] = pharmacokinetics, plasma concentrations by LC-MS/MS; details: for half-life / AUC / Cmax / Tmax: human, plasma, intravenous; for AUC / Cmax: mean
CDK12 = details: ref Johnson et al, 2016; cited from earlier work
advanced malignancies = assay: anti-tumour activity, RECIST v. 1.0; type: in vivo, human; details: parts 1 and 2; extending to 30 cycles
[2] = tested on: Rb phosphorylation and other CDK targets in keratinocytes; assay: CDK targets in skin biopsies; type: in vivo, human
[3] = coadministration with aprepitant; ref Zhang et al, 2012; cited from earlier work
[4] = tested on: PHA-stimulated lymphocytes in whole blood; assay: ex vivo lymphocyte stimulation assay; type: cell-based, human
[5] = tested on: Rb phosphorylation and other CDK targets in metastatic melanoma biopsies; assay: CDK targets in paired tumour biopsies; type: in vivo, human; details: three patients with metastatic melanoma
[6] = tested on: patients with solid tumours; details: weekly study; ref Nemunaitis et al, 2013; cited from earlier work
[7] = 2-h infusion, 29.6 mg m^−2, n=5
[8] = 2-h infusion, 41.4 mg m^−2, n=6
[9] = skin biopsies post- vs pre-treatment, 2-h infusions

What does the source list for CCc1cnn2c(NCc3ccc[n+]([O-])c3)cc(N3CCCC[C@H]3CCO)nc12 [dinaciclib, Dinaciclib]?
CL, mean ([1]; 2-h infusion, 1.85 mg m^−2, n=1): 13.6 L h^−1 m^−2; CL, mean ([1]; 2-h infusion, 3.7 mg m^−2, n=1): 11.0 L h^−1 m^−2; t1/2, mean ([1]; 2-h infusion, 3.7 mg m^−2, n=1): 2.84 h; CL, mean ([1]; 2-h infusion, 7.4 mg m^−2, n=1): 7.61 L h^−1 m^−2; CL, mean ([1]; 2-h infusion, 14.8 mg m^−2, n=1): 13.8 L h^−1 m^−2; CL, mean [1, 7]: 13.6 ^c L h^−1 m^−2; t1/2, mean [1, 7]: 2.84 ^c h; CL, mean [1, 8]: 26.8 L h^−1 m^−2; t1/2, mean [1, 8]: 2.86 h; CL, mean ([1]; 2-h infusion, 50 mg m^−2, n=15): 16.1 L h^−1 m^−2; CL, mean ([1]; 2-h infusion, 58 mg m^−2, n=4): 18.9 L h^−1 m^−2; Cmax, mean ([1]; 8-h infusion, 7.4 mg m^−2, n=6): 95.5 ng/mL; Cmax, mean ([1]; 8-h infusion, 14.8 mg m^−2, n=3): 95.8 ng/mL; Cmax, mean ([1]; 8-h infusion, 41.4 mg m^−2, n=2): 429 ng/mL; dose dependence of CL ([1]; based on the PK findings): dose-independent; half-life [1]: 1.4 to 3.3 h; AUC ([1]; 1.85 mg m^−2, AUC(l), 2-h infusion, 1.85 mg m^−2, n=1): 136 ng·h/mL; AUC ([1]; 1.85 mg m^−2, AUC(tf), 2-h infusion, 1.85 mg m^−2, n=1): 135 ng·h/mL; Cmax ([1]; 1.85 mg m^−2, Cmax, 2-h infusion, 1.85 mg m^−2, n=1): 62.5 ng/mL; AUC ([1]; 7.4 mg m^−2, AUC(l), 2-h infusion, 7.4 mg m^−2, n=1): 975 ng·h/mL; AUC ([1]; 7.4 mg m^−2, AUC(tf), 2-h infusion, 7.4 mg m^−2, n=1): 974 ng·h/mL; AUC ([1]; 7.4 mg m^−2, AUC(tf), 8-h infusion, 7.4 mg m^−2, n=6): 687 ng·h/mL; AUC ([1]; 7.4 mg m^−2, AUC(tf), 24-h infusion, 7.4 mg m^−2, n=4): 877 ng·h/mL; Cmax ([1]; 7.4 mg m^−2, Cmax, 2-h infusion, 7.4 mg m^−2, n=1): 353 ng/mL; Cmax ([1]; 7.4 mg m^−2, Cmax, 24-h infusion, 7.4 mg m^−2, n=4): 41.4 ng/mL; Tmax ([1]; 7.4 mg m^−2, Tmax, median, 8-h infusion, 7.4 mg m^−2, n=4): 4 h; Tmax ([1]; 7.4 mg m^−2, Tmax, median, 24-h infusion, 7.4 mg m^−2, n=1): 24 h; AUC ([1]; 10.4 mg m^−2, AUC(tf), 24-h infusion, 10.4 mg m^−2, n=3): 982 ng·h/mL; Cmax ([1]; 10.4 mg m^−2, Cmax, 24-h infusion, 10.4 mg m^−2, n=3): 51.4 ng/mL; Tmax ([1]; 10.4 mg m^−2, Tmax, median, 24-h infusion, 10.4 mg m^−2, n=2): 15 h; AUC ([1]; 14.6 mg m^−2, AUC(tf), 24-h infusion, 14.6 mg m^−2, n=3): 2590 ng·h/mL; Cmax ([1]; 14.6 mg m^−2, Cmax, 24-h infusion, 14.6 mg m^−2, n=3): 161 ng/mL; Tmax ([1]; 14.6 mg m^−2, Tmax, median, 24-h infusion, 14.6 mg m^−2, n=2): 15 h; half-life ([1]; 14.8 mg m^−2): 2.78 h; AUC ([1]; 14.8 mg m^−2, AUC(l), 2-h infusion, 14.8 mg m^−2, n=1): 1060 ng·h/mL; AUC ([1]; 14.8 mg m^−2, AUC(tf), 2-h infusion, 14.8 mg m^−2, n=1): 1060 ng·h/mL; AUC ([1]; 14.8 mg m^−2, AUC(tf), 8-h infusion, 14.8 mg m^−2, n=3): 702 ng·h/mL; Cmax ([1]; 14.8 mg m^−2, Cmax, 2-h infusion, 14.8 mg m^−2, n=1): 396 ng/mL; Tmax ([1]; 14.8 mg m^−2, Tmax, median, 8-h infusion, 14.8 mg m^−2, n=3): 4 h; AUC ([1]; 29.6 mg m^−2, AUC(l), 2-h infusion, 29.6 mg m^−2, n=5): 2440 ng·h/mL; AUC ([1]; 29.6 mg m^−2, AUC(tf), 2-h infusion, 29.6 mg m^−2, n=5): 2060 ng·h/mL; AUC ([1]; 29.6 mg m^−2, AUC(tf), 8-h infusion, 29.6 mg m^−2, n=3): 2300 ng·h/mL; Cmax ([1]; 29.6 mg m^−2, Cmax, 2-h infusion, 29.6 mg m^−2, n=6): 890 ng/mL; Cmax ([1]; 29.6 mg m^−2, Cmax, 8-h infusion, 29.6 mg m^−2, n=3): 333 ng/mL; Tmax ([1]; 29.6 mg m^−2, Tmax, median, 8-h infusion, 29.6 mg m^−2, n=3): 4 h; AUC ([1]; 41.4 mg m^−2, AUC(l), 2-h infusion, 41.4 mg m^−2, n=6): 2880 ng·h/mL; AUC ([1]; 41.4 mg m^−2, AUC(tf), 2-h infusion, 41.4 mg m^−2, n=6): 2860 ng·h/mL; AUC ([1]; 41.4 mg m^−2, AUC(tf), 8-h infusion, 41.4 mg m^−2, n=2): 3300 ng·h/mL; Cmax ([1]; 41.4 mg m^−2, Cmax, 2-h infusion, 41.4 mg m^−2, n=6): 1300 ng/mL; Tmax ([1]; 41.4 mg m^−2, Tmax, median, 8-h infusion, 41.4 mg m^−2, n=1): 4 h; AUC ([1]; 50 mg m^−2, AUC(l), 2-h infusion, 50 mg m^−2, n=15): 3940 ng·h/mL; AUC ([1]; 50 mg m^−2, AUC(tf), 2-h infusion, 50 mg m^−2, n=15): 3910 ng·h/mL; AUC ([1]; 50 mg m^−2, AUC(tf), 8-h infusion, 50 mg m^−2, n=2): 3670 ng·h/mL; Cmax ([1]; 50 mg m^−2, Cmax, 2-h infusion, 50 mg m^−2, n=15): 1810 ng/mL; Cmax ([1]; 50 mg m^−2, Cmax, 8-h infusion, 50 mg m^−2, n=2): 475 ng/mL; Tmax ([1]; 50 mg m^−2, Tmax, median, 8-h infusion, 50 mg m^−2, n=2): 8 h; AUC ([1]; 58 mg m^−2, AUC(l), 2-h infusion, 58 mg m^−2, n=4): 3370 ng·h/mL; AUC ([1]; 58 mg m^−2, AUC(tf), 2-h infusion, 58 mg m^−2, n=4): 3360 ng·h/mL; Cmax ([1]; 58 mg m^−2, Cmax, 2-h infusion, 58 mg m^−2, n=4): 1460 ng/mL; Tmax ([1]; Tmax, after the initiation of the 2-h infusion, 35 patients in Part 1, across doses): 1 to 2 h; Tmax ([1]; Tmax, after the start of the 8-h infusion, 16 patients): 4 to 8 h; Tmax ([1]; Tmax, after the start of the 24-h infusion): 6 to 24 h; CDK12 inhibition (CDK12): CDK12 inhibition by dinaciclib has also been demonstrated; patients with stable disease for at least six treatment cycles (advanced malignancies): eight; cyclin D1 levels [2, 9]: decreased; p27^Kip1 levels [2, 9]: relatively stable; p53 levels [2, 9]: increased; Ki-67 staining ([2]; skin biopsies post-treatment): no substantial reduction; degree of changes of Rb/CDK markers ([2]; skin biopsies, 8-h infusions): overall similar to that observed after 2-h infusions; effect of aprepitant on dinaciclib PK parameters [3]: does not significantly alter dinaciclib PK parameters; dose achieving reductions to <5% BrdU incorporation ([4]; 2-h infusions): ≥ 7.4 mg m^−2; dose reproducibly achieving a sustained PD effect through 8 h ([4]; 2-h infusions): ≥ 29.6 mg m^−2; plasma concentration at which reductions to <5% BrdU incorporation were observed ([4]; 2-h infusions): ~200 ng/mL; dose achieving suppression of lymphocyte proliferation ([4]; 8-h infusions): ≥ 7.4 mg m^−2; patients with pharmacodynamic reductions in BrdU incorporation ([4]; part 1, 2-h infusions): 24 of 35; patients with reduction of PHA-stimulated BrdU incorporation to <5% at at least one post-dose time point ([4]; part 1, of the 24 patients with reductions): 23; expression of Rb phosphorylated at S795 [5]: reduced expression; expression of Rb phosphorylated at T356 [5]: reduced expression; expression of Rb phosphorylated at other sites and of total Rb [5]: overall preserved expression; increases in p27^Kip1 and p53 post-treatment [5]: occurred in two samples; subjects with grade ⩾3 neutropenia [6]: 10%
